Test results: patent US4952408A, “Liposome-encapsulated vinca alkaloids and their use in combatting tumors” (priority 1988, dated 1990)
Values after ≈ are worked out from the molar mass of the structure shown. Where two headings read alike, the source gives them in different places.

Legend:
[1] = system: L1210 Leukemia; experiment: antitumor evaluation against L1210 leukemia in mice; assay type: in vivo, CD2 F1 mice; settings: for % ILS (percentage of increase in life span) / Long Term Survivors (50 days) / Median Survival: single dose
Description: The L1210 leukemia was maintained by serial passage i.p. in DBA/2F1 female mice. For antitumor studies, 2×10^5 cells of L1210 leukemia were implanted i.p. in CD2 F1 male mice (22-25 g). […] Each drug treated group and saline treated leukemic control group was composed of eight mice. […] Data are expressed as % of ILS (percentage of increase in life span). Median life spans were calculated from grouped median survival times and % of increase in life was calculated as: [formula] Experiments were terminated on day 50. Mice alive on that day were termed "cures" and were included in the calculation of median survival time of treated mice. The saline treated or blank liposomes treated controls had the median survival of 11 days. Free vincristine at a dose of 2 mg kg^-1 provided a median survival of 14.5 days with a % ILS of 32 with 2/8 long-term survivals. […] In contrast, the doses of vincristine entrapped in liposomes provided a much higher therapeutic response in mice bearing L1210 leukemia. […] In addition, higher doses of vincristine administered in liposomes produced significant therapeutic response with majority of leukemia bearing mice surviving at day 50.
CD2 F1 mice were implanted intraperitoneally with 2 ×
10^5 leukemia cells and drug treatment was given intravenously on day

[2] = tissue drug levels of free and liposomal vincristine (radioimmunoassay); assay type: in vivo, CD2 F1 mice; settings: for concentration at 5 min / concentration at 0.25 h / concentration at 0.5 h / concentration at 1 h / concentration at 2 h / concentration at 4 h / concentration at 8 h / concentration at 24 h: mouse, iv, 1 mg/kg; for concentration at 0.25 h: 15'; for concentration at 0.5 h: 30'
Description: (§1) CD2 F1 mice were administered vincristine as a free drug at a dose of 1 mg kg^-1 and liposomal entrapped vincristine at a dose of 1 mg kg^-1 and 5 mg kg^-1 via a lateral tail vein. At sequential time points, four mice in each treatment group were sacrificed and specific tissues were isolated and assayed for drug levels by radioimmunoassay as adapted in our laboratories.

[3] = system: non-Hodgkin's and Hodgkins lymphomas, acute lymphoblastic leukemia, Wilm's tumor, rhabdomyosarcoma, and neuroblastoma; settings: in vivo; cited from earlier work
[4] = total doses in excess of 2 mg; cited from earlier work
[5] = lethal toxicity in normal mice after single i.v. injection; assay type: in vivo, CD2 F1 mice
[6] = plasma pharmacokinetics of free and liposomal vincristine (radioimmunoassay); assay type: in vivo, CD2 F1 mice
Description: as §1

[7] = system: L1210 Leukemia cells; experiment: in vitro cytotoxicity against L1210 leukemia cells (trypan blue exclusion); assay type: cell-based; settings: Mus musculus; L1210 murine leukemia cells; 24 h treatment at 37° C., counted at 48 and 72 hours
Description: L1210 Leukemia cells were grown in suspension in air with 5% CO2 in RPMI Medium 1640 supplemented with 10% fetal calf serum and gentamicin (50 μg/ml). Log phase cells (10 ml) at an innoculum of 1×10^5 cells/ml of medium in 25 cm^2 plastic flasks were treated with either free vincristine or liposomal entrapped vincristine at different doses for 24 hours at 37° C. After drug treatment, cells were transferred to Falcon tubes and centrifuged for 10 minutes at 600 rpm. The supernatant media were discarded and the cell pellet was washed 3 times with RPMI Media 1640. The final cell pellet was resuspended in 10 ml of RPMI media and transferred to 25 cm^2 plastic flasks and incubated at 37° C. in air with 5% CO2 for growth. At 48 and 72 hours, an aliquot of cells from each flask were taken and were counted for viability by trypan blue exclusion under microscope. The number of cells proliferating in each flask were determined with respect to control. FIG. 3 represents the percent survival of cells when treated with free vincristine or vincristine entrapped in liposomes.

[8] = brain, brain, 1.0 mg, read-out: vincristine level, brain
[9] = kidney, kidney, 1.0 mg, read-out: vincristine level, kidney
[10] = liver, liver, 1.0 mg, read-out: vincristine level, liver
[11] = lung, lung, 1.0 mg, read-out: vincristine level, lung
[12] = spleen, spleen, 1.0 mg, read-out: vincristine level, spleen

**Q.** Which “% ILS (percentage of increase in life span)” value ([1]; 2.0 mg/kg i.v.) does the source give for CC[C@]1(O)C[C@H]2CN(CCc3c([nH]c4ccccc34)[C@@](C(=O)OC)(c3cc4c(cc3OC)N(C=O)[C@H]3[C@@](O)(C(=O)OC)[C@H](OC(C)=O)[C@]5(CC)C=CCN6CC[C@]43[C@@H]65)C2)C1 [free vincristine, vincristine] here?
**A.** 32%

**Q.** What about the “Long Term Survivors (50 days)” value ([1]; 2.0 mg/kg i.v.) of the same compound?
**A.** 2/8

**Q.** What about the “Median Survival” value ([1]; 2.0 mg/kg i.v.) of the same compound?
**A.** 14.5 days

**Q.** What about the “death of tumor bearing mice (drug toxicity)” value ([1]; 3 mg kg^-1 i.v.) of the same compound?
**A.** All the animals in this group were dead by day 10

**Q.** And the “% ILS (percentage of increase in life span)” value ([1]; 3.0 mg/kg i.v.)?
**A.** -32%

**Q.** What about the “Long Term Survivors (50 days)” value ([1]; 3.0 mg/kg i.v.) of the same compound?
**A.** 0/8

**Q.** What about the “Median Survival” value ([1]; 3.0 mg/kg i.v.) of the same compound?
**A.** 7.5 days

**Q.** What about the “levels of drug in brain, free compared with liposomal vincristine” value ([2]; brain, 1 or 5 mg kg^-1 liposomal) of the same compound?
**A.** higher than liposomal vincristine

**Q.** And the “drug level in liver” value ([2]; liver, 1 mg kg^-1, 8 hours)?
**A.** undetectable

**Q.** What about the “levels in lung, free compared with liposomal vincristine” value ([2]; lung, 1 mg kg^-1, different periods) of the same compound?
**A.** comparable

**Q.** And the concentration at 5 min [2, 8]?
**A.** 28 ng/g

**Q.** And the concentration at 0.25 h [2, 8]?
**A.** 21 ng/g

**Q.** What about the concentration at 0.5 h [2, 8] of the same compound?
**A.** 20 ng/g

**Q.** And the concentration at 1 h [2, 8]?
**A.** 21 ng/g

**Q.** And the concentration at 2 h ([2]; brain, brain, 1.0 mg, 2h, read-out: vincristine level, brain)?
**A.** 21 ng/g

**Q.** What about the concentration at 4 h [2, 8] of the same compound?
**A.** 29 ng/g

**Q.** And the concentration at 8 h [2, 8]?
**A.** 29 ng/g

**Q.** What about the concentration at 24 h [2, 8] of the same compound?
**A.** 19 ng/g

**Q.** And the concentration at 5 min [2, 9]?
**A.** 65 ng/g

**Q.** And the concentration at 0.25 h [2, 9]?
**A.** 64 ng/g

**Q.** And the concentration at 0.5 h [2, 9]?
**A.** 62 ng/g

**Q.** And the concentration at 1 h [2, 9]?
**A.** 47 ng/g

**Q.** And the concentration at 2 h ([2]; kidney, kidney, 1.0 mg, 2h, read-out: vincristine level, kidney)?
**A.** 47 ng/g

**Q.** And the concentration at 4 h [2, 9]?
**A.** 20 ng/g

**Q.** What about the concentration at 8 h [2, 9] of the same compound?
**A.** 18 ng/g

**Q.** And the concentration at 24 h [2, 9]?
**A.** 2 ng/g

**Q.** What about the concentration at 2 h ([2]; liver, liver, 1 mg kg^-1, 2 hours, read-out: drug level in liver) of the same compound?
**A.** 50 ng/g

**Q.** And the concentration at 5 min [2, 10]?
**A.** 200 ng/g

**Q.** What about the concentration at 0.25 h [2, 10] of the same compound?
**A.** 161 ng/g

**Q.** What about the concentration at 0.5 h [2, 10] of the same compound?
**A.** 121 ng/g

**Q.** And the concentration at 1 h [2, 10]?
**A.** 84 ng/g

**Q.** What about the concentration at 2 h ([2]; liver, liver, 1.0 mg, 2h, read-out: vincristine level, liver) of the same compound?
**A.** 47 ng/g

**Q.** What about the concentration at 4 h [2, 10] of the same compound?
**A.** 10 ng/g

**Q.** And the concentration at 5 min [2, 11]?
**A.** 80 ng/g

**Q.** What about the concentration at 0.25 h [2, 11] of the same compound?
**A.** 78 ng/g

**Q.** And the concentration at 0.5 h [2, 11]?
**A.** 80 ng/g

**Q.** And the concentration at 1 h [2, 11]?
**A.** 75 ng/g

**Q.** And the concentration at 2 h ([2]; lung, lung, 1.0 mg, 2h, read-out: vincristine level, lung)?
**A.** 77 ng/g

**Q.** What about the concentration at 4 h [2, 11] of the same compound?
**A.** 64 ng/g

**Q.** And the concentration at 8 h [2, 11]?
**A.** 58 ng/g

**Q.** What about the concentration at 24 h [2, 11] of the same compound?
**A.** 4 ng/g

**Q.** What about the concentration at 5 min [2, 12] of the same compound?
**A.** 83 ng/g

**Q.** And the concentration at 0.25 h [2, 12]?
**A.** 84 ng/g

**Q.** And the concentration at 0.5 h [2, 12]?
**A.** 72 ng/g

**Q.** What about the concentration at 1 h [2, 12] of the same compound?
**A.** 86 ng/g

**Q.** What about the concentration at 2 h ([2]; spleen, spleen, 1.0 mg, 2h, read-out: vincristine level, spleen) of the same compound?
**A.** 112 ng/g

**Q.** And the concentration at 4 h [2, 12]?
**A.** 112 ng/g

**Q.** And the concentration at 8 h [2, 12]?
**A.** 61 ng/g

**Q.** What about the concentration at 24 h [2, 12] of the same compound?
**A.** 43 ng/g

**Q.** What about the antitumor activity [3] of the same compound?
**A.** substantial activity

**Q.** And the neurotoxicity [4]?
**A.** often associated with a progressive and disabling neurotoxicity

**Q.** And the lethality ([5]; 2 mg kg^-1 i.v., to day 60)?
**A.** without any lethality

**Q.** What about the mortality at 192 h ([5]; mouse, in vivo, iv, 3 mg kg^-1 i.v., read-out: mice dead by day 8) of the same compound?
**A.** 90%

**Q.** What about the “apparent volume of distribution” value ([6]; i.v.) of the same compound?
**A.** apparent large volume of distribution

**Q.** And the “clearance of drug from plasma” value ([6]; i.v.)?
**A.** much faster clearance of drug from plasma

**Q.** What about the concentration at 5 min ([6]; mouse, iv, 1 mg/kg, plasma, 1.0 mg, 5', read-out: plasma level) of the same compound?
**A.** 630 ng/mL

**Q.** What about the concentration at 0.25 h ([6]; mouse, iv, 1 mg/kg, plasma, 1.0 mg, 15', read-out: plasma level) of the same compound?
**A.** 600 ng/mL

**Q.** What about the concentration at 0.5 h ([6]; mouse, iv, 1 mg/kg, plasma, 1.0 mg, 30', read-out: plasma level) of the same compound?
**A.** 200 ng/mL

**Q.** What about the concentration at 1 h ([6]; mouse, iv, 1 mg/kg, plasma, 1.0 mg, 1h, read-out: plasma level) of the same compound?
**A.** 100 ng/mL

**Q.** And the concentration at 2 h ([6]; mouse, iv, 1 mg/kg, plasma, 1.0 mg, 2h, read-out: plasma level)?
**A.** 50 ng/mL

**Q.** What about the Cmax at 5 min ([6]; mouse, plasma, iv, 1 mg kg^-1 i.v., 5 minutes, read-out: peak plasma level at 5 minutes) of the same compound?
**A.** 620 ng/mL

**Q.** And the IC50 [7]?
**A.** 4 ng/mL (≈ 4.85 nM)
